Tested on: patients with COPD
Assay: Pulmonary function tests (spirometry FEV1, FVC), tetomilast with inhaled albuterol, crossover study (Example 1)
Assay type: in vivo, human
Conditions: for Estimated Treatment Effect, change from baseline in FEV1 (tetomilast versus placebo) / Estimated Treatment Effect, change from baseline in FVC (tetomilast versus placebo) / LS Mean change from baseline in FEV1 (repeated measures ANOVA) / LS Mean change from baseline in FVC (repeated measures ANOVA) / Mean (SD) change from baseline in FEV1 / Mean (SD) change from baseline in FVC: Baseline (Day 0); for Estimated Treatment Effect, change from baseline in FEV1 (tetomilast versus placebo) / Estimated Treatment Effect, change from baseline in FVC (tetomilast versus placebo): both with inhaled albuterol; for LS Mean change from baseline in FEV1 (repeated measures ANOVA) / LS Mean change from baseline in FVC (repeated measures ANOVA) / Mean (SD) change from baseline in FEV1 / Mean (SD) change from baseline in FVC: tetomilast 50 mg QD + inhaled albuterol
Description: Pulmonary function tests were conducted throughout the study to monitor the subjects' respiratory status. Flow volume curves were collected via spirometry. Combivent® (Boehringer Ingleheim Pharmaceuticals, Inc., Ridgefield Conn.), which was used for short-acting rescues as needed throughout the studies described below, was withheld for 6 hours prior to any spirometric testing. Spirometry testing was performed at screening, baseline (Day 0), and at specific times during the treatment period. Each subject could have up to 5 spirometric readings at any study time point. Spirometric readings were performed using equipment from the central provider, Quantum Research, Inc. (Louisville, Colo.). All spirometry readings were recorded and sent to Quantum Research, Inc. for analysis
For the spirometric readings, the best effort was reported as follows. The highest acceptable forced expiratory volume in one second (FEV1) value was selected as the “best” of the given test session. If two or more FEV1 values were tied as highest, the sum of FEV1 and forced vital capacity (FVC) for those efforts was used. If both conditions were equal between the two efforts, the values reported were taken from the effort that occurred first, chronologically, based on date and time of the effort.
This study was a multicenter, randomized, double-blind, placebo-controlled, crossover, multiple dose, outpatient study in 27 patients with COPD. All subjects underwent a 28-day washout from inhaled corticosteroids and/or long-acting bronchodilators and/or continuous oxygen therapy (≧16 hours per day) and a 7-day washout from oral beta2-agonists and/or oral theophylline salts prior to baseline. Randomized subjects received an 8-day administration of oral placebo or tetomilast 50 mg oral dose (2×25 mg tablets) once daily (QD). On study Day 8, four consecutive doses of inhaled albuterol (90 μg albuterol base per puff) were given via a metered dose inhaler (MDI) and holding chamber (Ventolin®, GlaxoSmithKline, Research Triangle Park, N.C.), one dose every 30 minutes over the course of 90 minutes at doses of 90 μg+90 μg+180 μg+360 μg for a total dose of 720 μg (albuterol base) or 8 puffs.
Subjects entered a 7-day washout period (study days 9 through 15) and were then crossed over to the alternate treatment arm (placebo or tetomilast 50 mg oral dose). On study [0105] Day 23, the inhaled albuterol multiple dosing was repeated.
On Days 1-6 and 17-21, subjects were instructed to take their oral study medication (placebo or tetomilast 50 mg) QD with 8 ounces of water immediately before breakfast. Subjects assigned to the placebo arm received two placebo tablets QD. On Days 7, 8, 16, 22, and 23, subjects took their oral medication (placebo or tetomilast 50 mg) at the clinic in the presence of the study staff.
Combivent® inhalation aerosol use was allowed for short-acting rescue as needed throughout the study except on study days where PK samples were collected, on days when the multiple doses of inhaled albuterol were administered in the clinic, and/or on days when spirometry testing was performed. On all study days where PK samples were collected, Combivent® was withheld 6 hours prior to the PK draw. Additionally, on study Days 8 and 23 (when the multiple doses of inhaled albuterol were administered in the clinic), Combivent® was withheld 6 hours prior to PK assessment and throughout the duration of the clinic visit. Combivent® was withheld for six hours prior to spirometry testing. The recommended dose of Combivent® Inhalation Aerosol is two inhalations four times a day. In this study, subjects were permitted to take additional inhalations as required; however, the total number of inhalations was not to exceed 12 in 24 hours. Subjects were to “test-spray” three times before using for the first time and in cases where the aerosol had not been used for more than 24 hours. […]

`CCOc1ccc(-c2nc(-c3cccc(C(=O)O)n3)cs2)cc1OCC` [Tetomilast, 2-(3,4-diethoxyphenyl)-4-(2-carboxy-6-pyridyl)thiazole] was tested, and the “Estimated Treatment Effect, change from baseline in FEV1 (tetomilast versus placebo)” value (Day 8/23, 5 min postdose) was 0.02 L, the “Estimated Treatment Effect, change from baseline in FVC (tetomilast versus placebo)” value (Day 8/23, 5 min postdose) was 0.06 L and the “LS Mean change from baseline in FEV1 (repeated measures ANOVA)” value (“LS Mean change from baseline in FEV1” below) (Day 8/23, 5 min postdose) was 0.19 L. For the same compound, the “LS Mean change from baseline in FVC (repeated measures ANOVA)” value (“LS Mean change from baseline in FVC” for short) (Day 8/23, 5 min postdose) was 0.31 L, the “Mean (SD) change from baseline in FEV1” value (Day 8/23, 5 min postdose) was 0.19 (0.19) L and the “Mean (SD) change from baseline in FVC” value (Day 8/23, 5 min postdose) was 0.30 (0.28) L. For the same compound, the “Estimated Treatment Effect, change from baseline in FEV1 (tetomilast versus placebo)” value (Day 8/23, 25 min postdose) was 0.06 L, the “Estimated Treatment Effect, change from baseline in FVC (tetomilast versus placebo)” value (Day 8/23, 25 min postdose) was 0.11 L and the “LS Mean change from baseline in FEV1” value (Day 8/23, 25 min postdose) was 0.21 L. The “LS Mean change from baseline in FVC” value (Day 8/23, 25 min postdose) was 0.31 L, the “Mean (SD) change from baseline in FEV1” value (Day 8/23, 25 min postdose) was 0.21 (0.20) L and the “Mean (SD) change from baseline in FVC” value (Day 8/23, 25 min postdose) was 0.31 (0.38) L. For the same compound, the “Estimated Treatment Effect, change from baseline in FEV1 (tetomilast versus placebo)” value (Day 8/23, 35 min postdose) was 0.05 L, the “Estimated Treatment Effect, change from baseline in FVC (tetomilast versus placebo)” value (Day 8/23, 35 min postdose) was 0.09 L and the “LS Mean change from baseline in FEV1” value (Day 8/23, 35 min postdose) was 0.26 L. For the same compound, the “LS Mean change from baseline in FVC” value (Day 8/23, 35 min postdose) was 0.41 L, the “Mean (SD) change from baseline in FEV1” value (Day 8/23, 35 min postdose) was 0.26 (0.18) L and the “Mean (SD) change from baseline in FVC” value (Day 8/23, 35 min postdose) was 0.41 (0.34) L. The “Estimated Treatment Effect, change from baseline in FEV1 (tetomilast versus placebo)” value (Day 8/23, 55 min postdose) was 0.08 L, the “Estimated Treatment Effect, change from baseline in FVC (tetomilast versus placebo)” value (Day 8/23, 55 min postdose) was 0.15 L and the “LS Mean change from baseline in FEV1” value (Day 8/23, 55 min postdose) was 0.28 L. For the same compound, the “LS Mean change from baseline in FVC” value (Day 8/23, 55 min postdose) was 0.39 L, the “Mean (SD) change from baseline in FEV1” value (Day 8/23, 55 min postdose) was 0.28 (0.19) L and the “Mean (SD) change from baseline in FVC” value (Day 8/23, 55 min postdose) was 0.38 (0.31) L. For the same compound, the “Estimated Treatment Effect, change from baseline in FEV1 (tetomilast versus placebo)” value (Day 8/23, 65 min postdose) was 0.08 L, the “Estimated Treatment Effect, change from baseline in FVC (tetomilast versus placebo)” value (Day 8/23, 65 min postdose) was 0.18 L and the “LS Mean change from baseline in FEV1” value (Day 8/23, 65 min postdose) was 0.32 L. The “LS Mean change from baseline in FVC” value (Day 8/23, 65 min postdose) was 0.51 L, the “Mean (SD) change from baseline in FEV1” value (Day 8/23, 65 min postdose) was 0.32 (0.19) L and the “Mean (SD) change from baseline in FVC” value (Day 8/23, 65 min postdose) was 0.52 (0.37) L. For the same compound, the “Estimated Treatment Effect, change from baseline in FEV1 (tetomilast versus placebo)” value (Day 8/23, 85 min postdose) was 0.07 L, the “Estimated Treatment Effect, change from baseline in FVC (tetomilast versus placebo)” value (Day 8/23, 85 min postdose) was 0.13 L and the “LS Mean change from baseline in FEV1” value (Day 8/23, 85 min postdose) was 0.33 L. The “LS Mean change from baseline in FVC” value (Day 8/23, 85 min postdose) was 0.48 L, the “Mean (SD) change from baseline in FEV1” value (Day 8/23, 85 min postdose) was 0.33 (0.19) L and the “Mean (SD) change from baseline in FVC” value (Day 8/23, 85 min postdose) was 0.47 (0.37) L. The “Estimated Treatment Effect, change from baseline in FEV1 (tetomilast versus placebo)” value (Day 8/23, 95 min postdose) was 0.07 L, the “Estimated Treatment Effect, change from baseline in FVC (tetomilast versus placebo)” value (Day 8/23, 95 min postdose) was 0.19 L and the “LS Mean change from baseline in FEV1” value (Day 8/23, 95 min postdose) was 0.36 L. For the same compound, the “LS Mean change from baseline in FVC” value (Day 8/23, 95 min postdose) was 0.55 L, the “Mean (SD) change from baseline in FEV1” value (Day 8/23, 95 min postdose) was 0.36 (0.19) L and the “Mean (SD) change from baseline in FVC” value (Day 8/23, 95 min postdose) was 0.55 (0.40) L. The “Estimated Treatment Effect, change from baseline in FEV1 (tetomilast versus placebo)” value (Day 8/23, 115 min postdose) was 0.07 L, the “Estimated Treatment Effect, change from baseline in FVC (tetomilast versus placebo)” value (Day 8/23, 115 min postdose) was 0.18 L and the “LS Mean change from baseline in FEV1” value (Day 8/23, 115 min postdose) was 0.35 L. The “LS Mean change from baseline in FVC” value (Day 8/23, 115 min postdose) was 0.54 L, the “Mean (SD) change from baseline in FEV1” value (Day 8/23, 115 min postdose) was 0.35 (0.18) L and the “Mean (SD) change from baseline in FVC” value (Day 8/23, 115 min postdose) was 0.53 (0.44) L. For the same compound, the “Estimated Treatment Effect, change from baseline in FEV1 (tetomilast versus placebo)” value (Day 8/23, 175 min postdose) was 0.09 L, the “Estimated Treatment Effect, change from baseline in FVC (tetomilast versus placebo)” value (Day 8/23, 175 min postdose) was 0.15 L and the “LS Mean change from baseline in FEV1” value (Day 8/23, 175 min postdose) was 0.36 L. For the same compound, the “LS Mean change from baseline in FVC” value (Day 8/23, 175 min postdose) was 0.53 L, the “Mean (SD) change from baseline in FEV1” value (Day 8/23, 175 min postdose) was 0.36 (0.21) L and the “Mean (SD) change from baseline in FVC” value (Day 8/23, 175 min postdose) was 0.52 (0.36) L. For the same compound, the “Estimated Treatment Effect, change from baseline in FEV1 (tetomilast versus placebo)” value (Day 8/23, 235 min postdose) was 0.07 L, the “Estimated Treatment Effect, change from baseline in FVC (tetomilast versus placebo)” value (Day 8/23, 235 min postdose) was 0.09 L and the “LS Mean change from baseline in FEV1” value (Day 8/23, 235 min postdose) was 0.34 L. For the same compound, the “LS Mean change from baseline in FVC” value (Day 8/23, 235 min postdose) was 0.42 L, the “Mean (SD) change from baseline in FEV1” value (Day 8/23, 235 min postdose) was 0.34 (0.25) L and the “Mean (SD) change from baseline in FVC” value (Day 8/23, 235 min postdose) was 0.42 (0.48) L. For the same compound, the “Estimated Treatment Effect, change from baseline in FEV1 (tetomilast versus placebo)” value (Day 8/23, 295 min postdose) was 0.05 L, the “Estimated Treatment Effect, change from baseline in FVC (tetomilast versus placebo)” value (Day 8/23, 295 min postdose) was 0.19 L and the “LS Mean change from baseline in FEV1” value (Day 8/23, 295 min postdose) was 0.25 L. The “LS Mean change from baseline in FVC” value (Day 8/23, 295 min postdose) was 0.38 L, the “Mean (SD) change from baseline in FEV1” value (Day 8/23, 295 min postdose) was 0.25 (0.29) L and the “Mean (SD) change from baseline in FVC” value (Day 8/23, 295 min postdose) was 0.37 (0.49) L. The “Estimated Treatment Effect, change from baseline in FEV1 (tetomilast versus placebo)” value (Day 8/23, 355 min postdose) was 0.13 L, the “Estimated Treatment Effect, change from baseline in FVC (tetomilast versus placebo)” value (Day 8/23, 355 min postdose) was 0.24 L and the “LS Mean change from baseline in FEV1” value (Day 8/23, 355 min postdose) was 0.25 L. For the same compound, the “LS Mean change from baseline in FVC” value (Day 8/23, 355 min postdose) was 0.34 L, the “Mean (SD) change from baseline in FEV1” value (Day 8/23, 355 min postdose) was 0.25 (0.24) L and the “Mean (SD) change from baseline in FVC” value (Day 8/23, 355 min postdose) was 0.34 (0.39) L. The “effect on inhaled albuterol response (FEV1, FVC), exploratory repeated measures analysis” value (inhaled albuterol combined with tetomilast versus inhaled albuterol alone, Day 8/23) was “possible potentiation of the effect of inhaled albuterol” and the “FEV1 steady-state (predose) baseline value, Mean (SD)” value (predose Day 8/23, on tetomilast 50 mg QD, prior to inhaled albuterol) was 1.40 (0.61) L.

From patent US20120010179A1, “Methods of using a thiazole derivative” (priority 2006, published 2012)
